Results: US12673954B2 (BRISTOL-MYERS SQUIBB COMPANY, priority 2021, dated 2026)
Read-outs that look alike come from different tables or passages of the source.

Legend:
[1] = system: NF-κB pathway, THP1-Dual™ cells; test: STING reporter assay in THP1-Dual cells, NF-κB pathway (SEAP, QUANTI-Blue); assay type: cell-based, human; details: THP1-Dual cells, 10% human plasma, 20 hours, SEAP, 100% activation = 100 μM cGAMP, read-out: NFkB (EC50 μM)
Procedure, shortened: (§1)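 THP-1-derived dual-reporter cells treated with serially diluted compounds (final top concentration 100 μM) for 20 h at 37° C. NF-κB read as SEAP via QUANTI-Blue at OD620; IRF read as Lucia luminescence via QUANTI-Luc after 5 min. 100% activation set by 100 μM cGAMP, baseline by DMSO.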

[2] = system: IRF pathway, THP1-Dual™ cells; test: STING reporter assay in THP1-Dual cells, IRF pathway (Lucia luciferase, QUANTI-Luc); assay type: cell-based, human; details: THP1-Dual cells, 10% human plasma, 20 hours, Lucia luciferase, 100% activation = 100 μM cGAMP, read-out: IRF (EC50 μM)
Procedure, shortened: as §1

Row | SMILES | EC50 ([1]; Homo sapiens, THP1-Dual, 20 h) | EC50 ([2]; Homo sapiens, THP1-Dual, 20 h) | EC50 [1] | EC50 [2]
1 | C[C@H](NC(=O)c1cnn2cccnc12)c1oc2c(C(=O)OCC(F)(F)F)cc(F)cc2c1Cl [EXAMPLE 292, 2,2,2-Trifluoroethyl (S)-3-chloro-5-fluoro-2-(1-(pyrazolo[1,5-a]pyrimidine-3-carboxamido)ethyl)benzofuran-7-carboxylate] | 1.1 µM | 1.7 µM | – | –
2 | COC(=O)c1cc(O)cc2cc(CN3Cc4ccncc4C3=O)oc12 [EXAMPLE 104, Methyl 5-hydroxy-2-((3-oxo-1,3-dihydro-2H-pyrrolo[3,4-c]pyridin-2-yl)methyl)benzofuran-7-carboxylate] | 37 µM | 63 µM | – | –
3 | COC(=O)c1cc(F)cc2cc(C(C)NC(=O)c3cnn4cccnc34)oc12 (centres unmarked) [EXAMPLE 45, Methyl-5-fluoro-2-(1-(pyrazolo[1,5-a]pyrimidine-3-carboxamido)ethyl)benzofuran-7-carboxylate] | 0.99 µM | 0.98 µM | – | –
4 | COC(=O)c1cc(F)cc2cc([C@H](C)NC(=O)c3cnn4cccnc34)oc12 [EXAMPLE 46, Methyl (S)-5-fluoro-2-(1-(pyrazolo[1,5-a]pyrimidine-3-carboxamido)ethyl)benzofuran-7-carboxylate] | 1.5 µM | 1.5 µM | – | –
5 | COC(=O)c1cc(F)cc2cc(Cn3ccc4ncncc4c3=O)oc12 [EXAMPLE 37, Methyl 5-fluoro-2-((5-oxopyrido[4,3-d]pyrimidin-6(5H)-yl)methyl)benzofuran-7-carboxylate] | 12 µM | 11 µM | – | –
6 | CC(C)OC(=O)c1cc(F)cc2cc(CNC(=O)c3cnn4cccnc34)oc12 [EXAMPLE 232, Isopropyl 5-fluoro-2-((pyrazolo[1,5-a]pyrimidine-3-carboxamido)methyl)benzofuran-7-carboxylate] | 0.92 µM | 1 µM | – | –
7 | COC(=O)c1cc(F)cc2cc(Cn3cnc4ccncc4c3=O)oc12 [EXAMPLE 39, Methyl 5-fluoro-2-((4-oxopyrido[4,3-d]pyrimidin-3(4H)-yl)methyl)benzofuran-7-carboxylate] | 3.6 µM | 4 µM | – | –
8 | O=C(OC1CC(F)(F)C1(F)F)c1cc(F)cc2cc(CNC(=O)c3cnn4cccnc34)oc12 (single isomer, unassigned) [EXAMPLE 321, 2,2,3,3-Tetrafluorocyclobutyl 5-fluoro-2-((pyrazolo[1,5-a]pyrimidine-3-carboxamido)methyl)benzofuran-7-carboxylate] | – | – | 0.38 µM | 0.3 µM
9 | C[C@@H](OC(=O)c1c(F)ccc2cc(CNC(=O)c3cnn4cccnc34)oc12)C(F)(F)F [EXAMPLE 285, (R)-1,1,1-Trifluoropropan-2-yl 6-fluoro-2-((pyrazolo[1,5-a]pyrimidine-3-carboxamido)methyl)benzofuran-7-carboxylate] | 1.9 µM | 1.4 µM | – | –
10 | COC(=O)c1cc(C)cc2c(Cl)c(CNC(=O)c3cnn4cccnc34)oc12 [EXAMPLE 117, Methyl 3-chloro-5-methyl-2-((pyrazolo[1,5-a]pyrimidine-3-carboxamido)methyl)benzofuran-7-carboxylate] | 0.28 µM | 0.2 µM | – | –
11 | C[C@H](NC(=O)c1cnn2cccnc12)c1cc2cc(Cl)cc(C(=O)OC3CC(F)(F)C3)c2o1 [EXAMPLE 267, 3,3-Difluorocyclobutyl (S)-5-chloro-2-(1-(pyrazolo[1,5-a]pyrimidine-3-carboxamido)ethyl)benzofuran-7-carboxylate] | 6.6 µM | 5.8 µM | – | –
12 | O=C(OCC(F)(F)F)c1cc(F)cc2cc(Cn3ccc4ccncc4c3=O)oc12 [EXAMPLE 362, 2,2,2-Trifluoroethyl 5-fluoro-2-((1-oxo-2,7-naphthyridin-2(1H)-yl)methyl)benzofuran-7-carboxylate] | 4.6 µM | 5.7 µM | – | –
13 | O=C(OCC(F)(F)F)c1ccc(Cl)c2cc(CNC(=O)c3cnn4cccnc34)oc12 [EXAMPLE 357, 2,2,2-Trifluoroethyl 4-chloro-2-((pyrazolo[1,5-a]pyrimidine-3-carboxamido)methyl)benzofuran-7-carboxylate] | 1 µM | 0.9 µM | – | –
14 | COC(=O)c1cc(Cl)cc2cc(CNC(=O)c3cncc4ncn(C)c34)oc12 [Example 70, Methyl 5-chloro-2-((1-methyl-1H-imidazo[4,5-c]pyridine-7-carboxamido)methyl)benzofuran-7-carboxylate] | > 100 µM | 24 µM | – | –
15 | COC(=O)c1cc(Cl)cc2cc(Cn3ccc4ccncc4c3=O)oc12 [Example 78, Methyl 5-chloro-2-((1-oxo-2,7-naphthyridin-2(1H)-yl)methyl)benzofuran-7-carboxylate] | 3.7 µM | 3.4 µM | – | –
16 | COC(=O)c1cc(C2CC2)cc2cc(CNC(=O)c3cnn4cccnc34)oc12 [Example 99, Methyl 5-cyclopropyl-2-((pyrazolo[1,5-a]pyrimidine-3-carboxamido)methyl)benzofuran-7-carboxylate] | 12 µM | 17 µM | – | –

Now from value to compound:

Row | EC50 ([1]; Homo sapiens, THP1-Dual, 20 h) | EC50 ([2]; Homo sapiens, THP1-Dual, 20 h) | EC50 [1] | EC50 [2] | SMILES
17 | 1.5 µM | 2.1 µM | – | – | COC(=O)c1cc(C)cc2cc(C(C)NC(=O)c3cnn4cccnc34)oc12 (single isomer, unassigned) [Example 97, Methyl-5-methyl-2-(1-(pyrazolo[1,5-a]pyrimidine-3-carboxamido)ethyl)benzofuran-7-carboxylate]
18 | – | – | 1.9 µM | 1.9 µM | COC(OC(=O)c1cc(F)cc2cc(CNC(=O)c3cnc4cccnn34)oc12)C(F)(F)F (single isomer, unassigned) [EXAMPLE 314, 2,2,2-Trifluoro-1-methoxyethyl 5-fluoro-2-((imidazo[1,2-b]pyridazine-3-carboxamido)methyl)benzofuran-7-carboxylate]
19 | – | – | 2.5 µM | 3.2 µM | CC(CC(F)(F)F)OC(=O)c1cc(Cl)cc2cc(CNC(=O)c3cnn4cccnc34)oc12 (single isomer, unassigned) [EXAMPLE 336, 4,4,4-Trifluorobutan-2-yl 5-chloro-2-((pyrazolo[1,5-a]pyrimidine-3-carboxamido)methyl)benzofuran-7-carboxylate]
20 | 4.8 µM | 3.8 µM | – | – | Cc1cnc2c(C(=O)NCc3cc4cccc(C(=O)OCC(F)(F)F)c4o3)cnn2c1 [EXAMPLE 220, 2,2,2-Trifluoroethyl 2-((6-methylpyrazolo[1,5-a]pyrimidine-3-carboxamido)methyl)benzofuran-7-carboxylate]
21 | 3.5 µM | 3.3 µM | – | – | CCOc1ncncc1C(=O)NCc1cc2cc(Cl)cc(C(=O)OC)c2o1 [Example 74, Methyl 5-chloro-2-((4-ethoxypyrimidine-5-carboxamido)methyl)benzofuran-7-carboxylate]
22 | 95 µM | 47 µM | – | – | COC(=O)c1cccc2cc(Cn3ccc4[nH]ncc4c3=O)oc12 [EXAMPLE 19, Methyl 2-({4-oxo-1H,4H,5H-pyrazolo[4,3-c]pyridin-5-yl}methyl)-1-benzofuran-7-carboxylate]
23 | 1.2 µM | 1.3 µM | – | – | Cc1cc(C(=O)OC(C)C(F)(F)F)c2oc(CNC(=O)c3cnn4cccnc34)cc2c1 (centres unmarked) [EXAMPLE 378, 1,1,1-Trifluoropropan-2-yl 5-methyl-2-((pyrazolo[1,5-a]pyrimidine-3-carboxamido)methyl)benzofuran-7-carboxylate]
24 | 2.9 µM | 3 µM | – | – | COC(=O)c1ccc(C)c2cc(Cn3cnc4ccncc4c3=O)oc12 [EXAMPLE 29, Methyl 4-methyl-2-((4-oxopyrido[4,3-d]pyrimidin-3(4H)-yl)methyl)benzofuran-7-carboxylate]
25 | 2.3 µM | 1.3 µM | – | – | COC(=O)c1cc(Cl)cc2cc(CNC(=O)c3cncc4c3ncn4C)oc12 [Example 69, Methyl 5-chloro-2-((3-methyl-3H-imidazo[4,5-c]pyridine-7-carboxamido)methyl)benzofuran-7-carboxylate]
26 | 19 µM | 13 µM | – | – | O=C(OCCN1CCOCC1)c1cc(Cl)cc2cc(CNC(=O)c3cnn4cccnc34)oc12 [EXAMPLE 255, 2-Morpholinoethyl 5-chloro-2-((pyrazolo[1,5-a]pyrimidine-3-carboxamido)methyl)benzofuran-7-carboxylate]
27 | 3.5 µM | 4.3 µM | – | – | Cc1cc(C(=O)OCC(F)(F)F)c2oc(Cn3cnc4ccncc4c3=O)cc2c1 [EXAMPLE 374, 2,2,2-Trifluoroethyl 5-methyl-2-((4-oxopyrido[4,3-d]pyrimidin-3(4H)-yl)methyl)benzofuran-7-carboxylate]
28 | 7.2 µM | 5.5 µM | – | – | Cc1ccc(C(=O)OCC(F)(F)F)c2oc(CN3CCc4ccncc4C3=O)cc12 [EXAMPLE 361]
29 | 9.9 µM | 9.8 µM | – | – | CCOC(=O)c1cccc2cc(CN3CCc4ccncc4C3=O)oc12 [EXAMPLE 205, Ethyl 2-((1-oxo-3,4-dihydro-2,7-naphthyridin-2(1H)-yl)methyl)benzofuran-7-carboxylate]
30 | – | – | 6 µM | 7.2 µM | CC(OC(=O)c1cc(Br)cc2cc(CNC(=O)c3cnn4cccnc34)oc12)C(F)(F)F (single isomer, unassigned) [EXAMPLE 342, 1,1,1-Trifluoropropan-2-yl 5-bromo-2-((pyrazolo[1,5-a]pyrimidine-3-carboxamido)methyl)benzofuran-7-carboxylate]
31 | – | – | 56 µM | 21 µM | CC(OC(=O)c1ccc(Cl)c2cc(CNC(=O)c3cnn4cccnc34)oc12)C(F)(F)F (centres unmarked) [EXAMPLE 312, 1,1,1-Trifluoropropan-2-yl 4-chloro-2-((pyrazolo[1,5-a]pyrimidine-3-carboxamido)methyl)benzofuran-7-carboxylate]
